Test results from PMC9841532, “Exploring the Effect of Halogenation in a Series of Potent and Selective A2B Adenosine Receptor Antagonists” (Journal of Medicinal Chemistry, 2022).
Like-named read-outs stand apart in the source and are kept apart here.

Tests used:
A2BAR [1] = target: T1, A2BAR (Homo sapiens, UniProt P29275); experiment: Cellular impedance label-free assay (xCELLigence) in A2BAR-SNAP cells; assay type: cell-based; settings: compound 1 μM, NECA 1 μM, 45 min, n = 4
T1 construct: expressed in transfected cells; host or cells: HEK-293 T cells permanently expressing pRK5-A2BAR^SNAP
T1 sequence (P29275 1-332): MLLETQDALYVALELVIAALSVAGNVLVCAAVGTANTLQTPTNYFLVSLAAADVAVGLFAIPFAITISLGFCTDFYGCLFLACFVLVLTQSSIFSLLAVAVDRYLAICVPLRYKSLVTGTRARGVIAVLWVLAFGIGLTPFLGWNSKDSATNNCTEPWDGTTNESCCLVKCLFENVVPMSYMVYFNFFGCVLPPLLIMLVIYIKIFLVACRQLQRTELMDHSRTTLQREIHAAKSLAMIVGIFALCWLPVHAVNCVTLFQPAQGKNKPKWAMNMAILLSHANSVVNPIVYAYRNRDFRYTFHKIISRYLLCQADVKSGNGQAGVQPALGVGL
From the text: To further evaluate the ability of 16b, 16j, 16r, and 16s to preclude A2BAR function in living cells, we took advantage of the cellular impedance label-free method, a widely accepted morphological and functional biosensor of cell status.[39] Accordingly, whole-cell NECA-mediated impedance responses of A2BAR^SNAP cells were monitored in real time in the absence or presence of 16b, 16j, 16r, and 16s.
Figure 4 Blockade of A2BAR-mediated whole-cell label-free responses. (A) Representative example of the impedance signal obtained over the time upon incubation with A2BAR ligands. […] (B) The area under the curve (AUC) derived from the normalized cell index (NCI) shown in (A) was calculated for each condition. Data are expressed as mean ± SEM (n = 4). ***P < 0.001 and **P < 0.01, one-way ANOVA with a Dunnett’s multiple-comparison test when compared to vehicle (Veh).
The xCELLigence RTCA system (Roche) was employed to assess the impact of blocking A2BAR-mediated effects in cellular impedance upon receptor activation, as previously described.[57]−[60] To this end, A2BAR^SNAP cells were growth in 16-well E-plates (Roche), using DMEM supplemented with 1 mM sodium pyruvate, 2 mM L-glutamine, 100 U/mL streptomycin, […] penicillin, and 1.5% (v/v) fetal bovine serum in the presence of 0.5 U/mL of ADA. Of note, wells were previously coated with 50 μL fibronectin (10 μg/mL; Sigma-Aldrich) and the background index for each well was determined with supplemented DMEM (90 μL) in the absence of cells. Subsequently, A2BAR^SNAP cells (90 μL) were plated at a cell density of 10,000 cells/well and grown for 18 h in the RTCA SP device station (Roche) at 37 °C in an atmosphere of 5% CO2. Then, before ligand addition, cell index values were normalized to the same time point using the RTCA software, providing the normalized cell index (NCI). After ligand stimulation, NCI was recorded every 15 s for a total time of at least 45 min. The area under the curve (AUC) for every condition was calculated using GraphPad Prism 9.

hA2AAR = target: T2, hA2AAR (Homo sapiens, UniProt P29274); experiment: Radioligand binding competition, [3H]ZM241385, membranes from HeLa-A2A cells; settings: 1 μM, [3H]ZM241385, human HeLa cells, n = 2
T2 construct: expressed in transfected cells; host or cells: HeLa (HeLa-A2A) cell membranes
T2 sequence (P29274 whole entry): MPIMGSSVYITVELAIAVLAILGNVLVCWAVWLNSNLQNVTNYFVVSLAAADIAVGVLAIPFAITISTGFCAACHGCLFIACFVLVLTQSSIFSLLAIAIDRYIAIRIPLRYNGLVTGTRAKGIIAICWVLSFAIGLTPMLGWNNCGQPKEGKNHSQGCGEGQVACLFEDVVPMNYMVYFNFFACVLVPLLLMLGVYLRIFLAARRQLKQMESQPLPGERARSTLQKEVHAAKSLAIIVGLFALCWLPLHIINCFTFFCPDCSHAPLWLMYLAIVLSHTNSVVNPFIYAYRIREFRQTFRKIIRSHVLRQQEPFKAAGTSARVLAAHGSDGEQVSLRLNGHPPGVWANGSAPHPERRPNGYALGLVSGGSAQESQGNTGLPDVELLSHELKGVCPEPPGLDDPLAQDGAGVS
Procedure, shortened: (§1)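 Racemates, plus selected enantiomers after chiral resolution, were tested at 25 °C, with a 60 min incubation for one subtype and 30 min for others. Non-specific binding was defined with 10 μM or 100 μM R-PIA. Bound radioactivity was counted after washing and filtration.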

hA2BAR = target: T3, hA2BAR (Homo sapiens, UniProt P29275); experiment: Radioligand binding competition, [3H]DPCPX, membranes from HEK-293-A2B cells; settings: read-out: Ki hA2B
T3 construct: host or cells: HEK-293 (HEK-293-A2B) cell membranes
T3 sequence (P29275 1-332): T1 sequence (P29275 1-332)
Procedure, shortened: as §1

hA3AR = target: T4, hA3AR (Homo sapiens, UniProt P0DMS8); experiment: Radioligand binding competition, [3H]NECA, membranes from HeLa-A3 cells; settings: 1 μM, [3H]NECA, human HeLa cells, n = 2
T4 construct: expressed in transfected cells; host or cells: HeLa (HeLa-A3) cell membranes
T4 sequence (P0DMS8 1-318): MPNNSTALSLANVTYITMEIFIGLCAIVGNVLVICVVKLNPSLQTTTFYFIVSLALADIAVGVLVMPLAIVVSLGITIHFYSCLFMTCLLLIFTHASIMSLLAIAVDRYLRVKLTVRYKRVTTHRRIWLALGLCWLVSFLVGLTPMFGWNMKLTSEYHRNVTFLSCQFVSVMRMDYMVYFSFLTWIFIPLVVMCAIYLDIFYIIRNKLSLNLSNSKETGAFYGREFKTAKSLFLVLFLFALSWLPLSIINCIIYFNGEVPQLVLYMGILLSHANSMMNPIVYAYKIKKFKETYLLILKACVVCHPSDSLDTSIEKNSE
Procedure, shortened: as §1

A2BAR [2] = target: T1, A2BAR; experiment: cAMP accumulation assay in HEK-293 cells permanently expressing A2BAR-SNAP; assay type: cell-based; settings: read-out: KB (hA2B)
Method: To assess their ability to block A2BAR agonist intrinsic activity, the effect on A2BAR-mediated cAMP accumulation and cellular impedance was evaluated. To this end, we used HEK-293 cells permanently expressing the A2BAR^SNAP construct, which can be visualized upon staining the cells with a SNAP-fluorescent substrate.
Scale bar: […]. […] Data are expressed as mean ± SEM (n = 4).
cAMP accumulation was measured using the LANCE Ultra cAMP kit (PerkinElmer, Waltham, Massachusetts, USA) as previously described.[55] […] The 384-well plate was incubated 1 h at 22 °C in the dark and was then read on a CLARIOstar Microplate Reader (BMG Labtech, Durham, North Carolina, USA). […] Data were fitted by non-linear regression using GraphPad Prism 9 (San Diego, California, USA).

hA1AR = target: T5, hA1AR (Homo sapiens, UniProt P30542); experiment: Radioligand binding competition, [3H]DPCPX, membranes from CHO-A1 cells; settings: 1 μM, [3H]DPCPX, human CHO cells, n = 2
T5 sequence (P30542 1-326): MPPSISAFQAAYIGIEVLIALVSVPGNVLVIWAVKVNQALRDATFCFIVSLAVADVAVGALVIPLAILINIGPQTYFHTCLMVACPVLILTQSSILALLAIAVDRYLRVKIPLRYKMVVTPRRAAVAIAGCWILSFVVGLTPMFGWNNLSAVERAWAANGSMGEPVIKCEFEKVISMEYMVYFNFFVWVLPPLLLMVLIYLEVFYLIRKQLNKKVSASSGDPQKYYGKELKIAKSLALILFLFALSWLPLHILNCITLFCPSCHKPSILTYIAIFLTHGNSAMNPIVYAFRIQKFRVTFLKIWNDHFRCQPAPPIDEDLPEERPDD
Procedure, shortened: as §1

For CCOC(=O)C1=C(C)Nc2nc3cc(Br)ccc3n2C1c1ccoc1 (stereo not shown) [16s], the “Blockade of NECA-induced changes in cellular impedance (AUC of normalized cell index)” value (A2BAR [1]) was “significantly blocked”, the “% at 1 μM hA2A (percentage displacement of specific binding)” value (hA2AAR) was 37% and the Ki (hA2BAR; displacement of specific [3H]DPCPX binding in human HEK-293 cells, n = 3) was 3.32 ± 0.4 nM. The Ki (hA2BAR) was < 10 nM, the “% at 1 μM hA3 (percentage displacement of specific binding)” value (hA3AR) was 25% and the Kb (A2BAR [2]) was 1.5 ± 0.5 nM. For the same molecule, the “% at 1 μM hA1 (percentage displacement of specific binding)” value (hA1AR) was 1%.
